# Data published in patent US20130203798A1, “DIAGNOSIS AND TREATMENT OF FUNCTIONAL DYSPEPSIA AND IRRITABLE BOWEL SYNDROME” (EV MED, priority 2012, published 2013).
# Columns and labels:
# coxsackievirus B3 (CVB3) = experiment: Inhibition of enterovirus replication in chronically infected BGMK-DAF cells, viral RNA by qRT-PCR; format: cell-based; settings: for Viral RNA Log10: no treatment 6.84
# Experimental: (§1) Oxymatrine is an alkaloid with antiviral and immune boosting effect. […] 200,000 BGMK-DAF cells were infected with coxsackievirus B3,4 (CVB3,4) or echovirus 6,7 (Echo V6,7), previously titrated to cause complete lysis of cells in 48-72 hours, then treated with 0.18 μg of peg-interferon α-2a in 4 hours and 90 hours. Oxymatrine was added at 162 hours post-infection. Viral RNA, expressed in log10 was quantified by qRT-PCR with a cDNA standard, and reduction of log viral RNA calculated based on no-treatment wells. Duplicate wells were combined for viral RNA determination.
# coxsackievirus B4 (CVB4) = experiment: as above; format: cell-based; settings: for Viral RNA Log10: no treatment 4.20
# Experimental: as §1
# echovirus 6 (EchoV 6) = experiment: as above; format: cell-based; settings: EchoV 6, BGMK-DAF cells; for Viral RNA Log10: no treatment 5.00
# Experimental: as §1
# echovirus 7 (EchoV 7) = experiment: as above; format: cell-based; settings: EchoV 7, BGMK-DAF cells; for Viral RNA Log10: no treatment 5.61
# Experimental: as §1
# enteroviruses = experiment: In vitro inhibition of four enteroviruses in interferon pre-treated, chronically infected cells (summary); format: cell-based, enterovirus; settings: cells pre-treated with interferon to produce chronic infection; four enteroviruses tested
# Experimental: as §1
compound,measurement,setting,value
"O=C1CCC[C@@H]2[C@H]3CCC[N@+]4([O-])CCC[C@@H](CN12)[C@@H]34 [Oxymatrine, oxymatrine]",Dec Log10 (reduction of log viral RNA vs no-treatment wells),coxsackievirus B3 (CVB3); 1 μM oxymatrine,−6.24 Log10
same,Viral RNA Log10,coxsackievirus B3 (CVB3); 1 μM oxymatrine,0.60 Log10
same,Dec Log10 (reduction of log viral RNA vs no-treatment wells),coxsackievirus B3 (CVB3); 10 μM oxymatrine,−6.54 Log10
same,Viral RNA Log10,coxsackievirus B3 (CVB3); 10 μM oxymatrine,0.30 Log10
same,Dec Log10 (reduction of log viral RNA vs no-treatment wells),coxsackievirus B3 (CVB3); 100 μM oxymatrine,−5.54 Log10
same,Viral RNA Log10,coxsackievirus B3 (CVB3); 100 μM oxymatrine added 162 h post-infection,1.30 Log10
same,Dec Log10 (reduction of log viral RNA vs no-treatment wells),coxsackievirus B4 (CVB4); 1 μM oxymatrine,−0.55 Log10
same,Viral RNA Log10,coxsackievirus B4 (CVB4); 1 μM oxymatrine,3.66 Log10
same,Dec Log10 (reduction of log viral RNA vs no-treatment wells),coxsackievirus B4 (CVB4); 10 μM oxymatrine,−4.20 Log10
same,Viral RNA Log10,coxsackievirus B4 (CVB4); 10 μM oxymatrine,0.00 Log10
same,Dec Log10 (reduction of log viral RNA vs no-treatment wells),coxsackievirus B4 (CVB4); 100 μM oxymatrine,−3.90 Log10
same,Viral RNA Log10,coxsackievirus B4 (CVB4); 100 μM oxymatrine,0.30 Log10
same,Dec Log10 (reduction of log viral RNA vs no-treatment wells),echovirus 6 (EchoV 6); 1 μM oxymatrine,0.00 Log10
same,Viral RNA Log10,echovirus 6 (EchoV 6); 1 μM oxymatrine,5.00 Log10
same,Dec Log10 (reduction of log viral RNA vs no-treatment wells),echovirus 6 (EchoV 6); 10 μM oxymatrine,0.37 Log10
same,Viral RNA Log10,echovirus 6 (EchoV 6); 10 μM oxymatrine,5.37 Log10
same,Dec Log10 (reduction of log viral RNA vs no-treatment wells),echovirus 6 (EchoV 6); 100 μM oxymatrine,0.00 Log10
same,Viral RNA Log10,echovirus 6 (EchoV 6); 100 μM oxymatrine,5.00 Log10
same,Dec Log10 (reduction of log viral RNA vs no-treatment wells),echovirus 7 (EchoV 7); 1 μM oxymatrine,−0.28 Log10
same,Viral RNA Log10,echovirus 7 (EchoV 7); 1 μM oxymatrine,5.33 Log10
same,Dec Log10 (reduction of log viral RNA vs no-treatment wells),echovirus 7 (EchoV 7); 10 μM oxymatrine,−0.17 Log10
same,Viral RNA Log10,echovirus 7 (EchoV 7); 10 μM oxymatrine,5.45 Log10
same,Dec Log10 (reduction of log viral RNA vs no-treatment wells),echovirus 7 (EchoV 7); 100 μM oxymatrine,0.22 Log10
same,Viral RNA Log10,echovirus 7 (EchoV 7); 100 μM oxymatrine,5.83 Log10
same,Inhibition of enteroviruses in vitro,enteroviruses,significant inhibition of two out of four enteroviruses
